{"source": "patent US7338669B2", "about": "“Inorganic boranophosphate salts” (Bar-Ilan University, priority 2005, dated 2008)", "key": {"[1]": {"assay": "Stability of BPi towards selected organic and inorganic reagents (31P NMR)", "type": "physicochemical", "from_the_text": "The reactivity of BPi towards various organic and inorganic reagents was explored as part of the characterization of BPi's chemical nature. These reagents include: aqueous acid solution, nitrile, amide, carbodiimide, pyridine and imidazole, tosyl chloride, phosphorous oxychloride, H2, and Zn^2+ and Mg^2+ ions.\nAlthough BH3, in complexes with a variety of sulfur/amine/oxygen compounds, is an efficient reducing agent, its reducing nature is drastically altered in Bpi. For instance, while hydrid transfer from “BH3” to water occurs readily, the BH3 moiety in BPi transfers hydride only in a highly acidic solution (pH<2). Likewise, while BH3.\nA carbodiimide reagent is used for the condensations of phosphate to provide the corresponding phosphoric anhydride. […] This finding is in contrast to diethylphosphite (cyano- or methoxycarbonyl)borane analogues, which are stable to dicyclohexylecarbodiimide (DCC) (Vyakaranam et al., 2002).\nThe reactivity of BPi with imidazole and pyridine was studied. […] The reaction of 5′-DMT-2′-deoxy-thymidine with tetramethyl boranopyrophosphate in the presence of N-methylimidazole was reported to proceed with the partial removal of the borane group. Likewise, when pyridine was used as a solvent, partial removal of the borane group was observed (Wada et al., 2002).\nThe presence of divalent metal ions such as Zn^2+ and Mg^2+ in DMF and water for 48 h and 4 h, respectively, left BPi unchanged."}, "[2]": {"assay": "Solubility of BPi salts in water and organic solvents", "type": "physicochemical"}, "[3]": {"assay": "Stability / decomposition rate of BPi in aqueous solution at different pH, monitored by 31P NMR", "type": "physicochemical", "protocol": "The decomposition rate was determined by measuring changes in the integration of the respective NMR signals within 96 h.\nBPi is stable in neutral and basic solutions.\nThe borane reacts with water to liberate hydrogen gas and boric acid."}, "[4]": {"settings": "comparison value quoted in the text; cited from earlier work"}, "[5]": {"protocol": "The ^31P NMR chemical shift was monitored as a function of the pH. A five-parameter sigmoid function was fitted to the data using Sigma Plot 2000 (SPSS, Inc.): δ=δ0+a/[1+e^−((pH-pH0)/b)]^c The inflection point, which is determined by the second derivative of the fitted sigmoid function, is the pKa value.\nThe acid-base character of BPi was studied by ^31P NMR—monitored pH-titration, as described in Experimental, (v)."}}}
{"compound": "inorganic boranophosphate [BPi]", "values": [{"measurement": "stability with imidazole", "setting": "[1]; 2 or 10 equiv. imidazole in CD3OD, 96 h, 31P NMR", "value": "remained unchanged"}, {"measurement": "stability with divalent metal ions", "setting": "[1]; Zn^2+ and Mg^2+ in DMF and water for 48 h and 4 h, respectively", "value": "unchanged"}, {"measurement": "stability in acetonitrile and dimethyl formamide", "setting": "[1]; acetonitrile and dimethyl formamide solutions, no reduction of the solvent", "value": "complete stability"}, {"measurement": "stability in pyridine", "setting": "[1]; solution in pyridine, 113 h", "value": "negligible cleavage of the P—B bond"}, {"measurement": "water solubility", "setting": "[2]; in water", "value": "high water solubility"}, {"measurement": "stability in neutral and basic solutions", "setting": "[3]; neutral and basic solutions", "value": "stable"}, {"measurement": "t1/2 of degradation to phosphorus acid", "setting": "[3]; pH 2, room temperature, 31P NMR", "value": 11.5, "unit": "days"}, {"measurement": "rate of degradation to phosphorus acid", "setting": "[3]; pH 2, room temperature, 31P NMR, R^2=1.00", "value": "7e-07", "unit": "s⁻¹"}, {"measurement": "degradation observed by 31P NMR", "setting": "[3]; pH 13.7, 48 h, room temperature", "value": "no degradation"}, {"measurement": "behaviour under highly acidic conditions", "setting": "[3]; pH<2, H2 evolved, boric acid and phosphorus acid formed", "value": "the P—B bond is cleaved"}, {"measurement": "stability in acidic solution", "setting": "[3]; pH>2", "value": "relatively stable"}]}
{"compound": "Tributylammonium Boranophosphate [Compound 2b]", "values": [{"measurement": "solubility in organic solvents", "setting": "[2]; organic solvents such as MeOH, CH3CN, DMF, CHCl3", "value": "dissolves only in organic solvents"}]}
{"compound": "O=[PH](O)O", "note": "[phosphorus acid]", "values": [{"measurement": "pKa, higher of the two comparison values", "setting": "[4]", "value": 6.2}, {"measurement": "pKa, lower of the two comparison values (phosphoric acid: second protonation equilibrium)", "setting": "[4]", "value": 1.8}]}
{"compound": "Ammonium Boranophosphate [Compound 2a]", "values": [{"measurement": "degraded to phosphorus acid (P—B bond cleavage)", "setting": "[1]; excess EDC, water pH 6.5, 37° C., 4 h, 31P NMR", "value": 72, "unit": "%"}, {"measurement": "pKa (first inflection point)", "setting": "[5]", "value": 7.12}, {"measurement": "pKa (second inflection point)", "setting": "[5]", "value": 12.54}]}
